Source: patent US20220273688A1, “Treatment of Glycosylation Deficiency Diseases” (Wellstat Therapeutics Corporation, priority 2014, published 2022)

Columns and labels:
[1] = test system: Phosphoglucomutase-1 (PGM-1) deficiency; settings: galactose 0.5 to 1 g/kg per day; cited from earlier work
[2] = test system: patient with phosphoglucomutase-1 deficiency (Type II CDG); experiment: Treatment of a phosphoglucomutase-1 deficiency patient with d-galactose plus uridine triacetate; format: in vivo, human; settings: uridine triacetate 2 g/m2 BSA twice per day with 1 gram/kg d-galactose per day
Description: A patient with multisystem disease consistent with phosphoglucomutase deficiency receives a definitive diagnosis via detection of impaired transferring glycosylation and a mutation in PGM-1.

[3] = test system: patient with GNE myopathy; experiment: Treatment of a GNE myopathy patient with N-acetylmannosamine plus uridine triacetate; format: in vivo, human; settings: uridine triacetate 2 g/m2 BSA twice per day with oral N-acetylmannosamine 3 to 10 grams per day
Method: A patient displaying progressive distal muscle weakness, with vacuoles and filamentous inclusions in a muscle biopsy, is diagnosed with GNE myopathy by testing for mutations in GNE, which result in impaired synthesis of endogenous sialic acid. The patient is treated with oral N-acetylmannosamine at a dose of 3 to 10 grams per day. The patient is also treated with uridine triacetate a dosage of 2 grams per square meter of body surface area administered twice per day.

[4] = test system: patient with GPT deficiency (Type II CDG); experiment: Treatment of a GPT deficiency patient with N-acetylglucosamine plus uridine triacetate; format: in vivo, human; settings: uridine triacetate 2 g/m2 BSA twice per day with N-acetylglucosamine 200 mg/kg per day
Method: A patient displaying severe hypotonia, medically intractable seizures, developmental delay andmicrocephaly is diagnosed with a deficiency of activity of the enzyme GPT, a Type II CDG, by detection of a mutation in its encoding gene DPAGT-1. (“GPT” is the enzyme dolichol phosphate N-acetyl-glucosamine-1 phosphate transferase; “DPAGT-1” is the gene that encodes GPT.) The patient is treated with N-acetylglucosamine at a dose of 200 mg/kg per day. The patient is also treated with uridine triacetate a dosage of 2 grams per square meter of body surface area administered twice per day.

[5] = test system: patient with congenital disorder of glycosylation (reduced availability of a uridine-diphospho sugar); experiment: Treatment of a CDG patient with oral uridine triacetate; format: in vivo, human; settings: 2 grams per square meter of body surface area, three times per day
Method: A patient displaying developmental delays is diagnosed with a congenital disorder of glycosylation by detection of a mutation affecting glycosylation by reducing availability of a uridine-diphospho sugar, corroborated by biochemical measurements in cells from the patient. The patient is treated with oral uridine triacetate at a dose of 2 grams per square meter of body surface area, administered three times per day.

| SMILES | symptom resolution [1] | clinical response versus d-galactose alone [2] | clinical response versus N-acetylmannosamine alone [3] | clinical response versus N-acetylglucosamine alone [4] | response to treatment (protein glycosylation and clinical condition) [5] |
| --- | --- | --- | --- | --- | --- |
| O=C[C@H](O)[C@@H](O)[C@@H](O)[C@H](O)CO [galactose] | partial resolution of some symptoms |  |  |  |  |
| CC(=O)OC[C@H]1O[C@@H](n2ccc(=O)[nH]c2=O)[C@H](OC(C)=O)[C@@H]1OC(C)=O [uridine triacetate, 2′,3′,5′-tri-O-acetyluridine] |  | improves the clinical response beyond that achieved with d-galactose alone | improves the clinical response beyond that achieved with N-acetylmannosamine alone | improves the clinical response beyond that achieved with N-acetylglucosamine alone | responds to treatment, displaying biochemical measures of improved protein glycosylation and concurrent improvements in clinical condition |
